The record followed here is patent publication US20080293696A1, “2-Aminoarylcarboxamides Useful as Cancer Chemotherapeutic Agents” (Bayer Pharmaceuticals Corporation, priority 2004, published 2008).

For orientation: IC50 means the point on the concentration scale where inhibition reaches its midpoint.

For this assay, the system named is PAKT/PKB (p-(S473) AKT) in H209 small cell lung carcinoma cells stimulated with Stem Cell Factor. The assay is described as follows: PAKT/PKB Cytoblot Assay with H209 cells (SCF-stimulated p-(S473) AKT). The class given is cell-based. To be noted: Homo sapiens, NCI-H209, compound 1 hour, SCF 25 ng/mL 5 minutes. As to the method: PAKT/PKB Cytoblot Assay Protocol with H209 Cells
H209 small cell lung carcinoma cells in log phase were plated at 50,000 cells/well in 96-well poly-lysine coated, clear bottom/black-sided plates (BD Cat # 354640) in 100 μl RPMI medium containing 0.1% (w/v) BSA, and incubated overnight at 37° C. in 5% CO2 incubator. The following day, compounds (10 mM stock solutions in DMSO) were added to the plates to generate final concentrations of 0.0, 0.01, 0.03, 0.1, 0.3, 1.0, 3.0 and 10 μM for IC50 determinations and incubated for 1 hour at 37° C. Cells were then left untreated or stimulated with Stem Cell Factor (SCF: Biosource Cat # PHC2116) at a final concentration of 25 ng/mL for 5 minutes at 37° C. in 5% CO2 incubator. The media was then removed using a vacuum manifold and the cells were washed once with Tris Buffered Saline (TBS).
Cells were then fixed by adding 200 μl of cold 3.7% (v/v) formaldehyde in TBS to each well for 15 minutes at 4° C. After removal of the formaldehyde, the cells were treated with the addition of 50 μl of methanol (at −20° C.) to each well for 5 minutes. After removal of the methanol, […] of 1% (w/v) BSA in TBS was added to each well to block non-specific antibody binding sites and the plate was incubated at room temperature for 30 minutes.
After removal of the blocking buffer, 50 μl of p-(S473) AKT rabbit polyclonal antibody (Cell Signaling Cat # 9277S) was added at a dilution of 1:250 in 0.1% (w/v) BSA in TBS, and the plate was incubated at room temperature for 1 hour. Plates were then washed 3 times with cold TBS containing 0.05% (v/v) Tween 20 (TBS-T) and […] of Horseradish peroxidase (HRP)-conjugated goat-anti-rabbit antibody (Amersham Cat # NA934V) at a dilution of 1:250 in TBS-T was added and the plate was incubated at room temperature for 1 h. After washing with ice-cold TBS-T four times, 100 μl of Enhanced Chemiluminescence (ECL) reagent (Amersham Cat# RPN2209) was added to each well and mixed on a mini-orbital shaker for 1 min. The plate was then read on a Perkin Elmer Victor 5 Multilabel Counter (#1420-0421).

Where [1] appears, read: group: between 500 nM and 1 μM (units in value).

In turn, `CN(C)C(=O)c1cc(CNc2ccccc2C(=O)Nc2ccc3c(c2)OC(F)(F)O3)ccn1` [Example 80, 4-{[(2-{[(2,2-Difluoro-1,3-benzodioxol-5-yl)amino]carbonyl}phenyl)amino]methyl}-N,N-dimethylpyridine-2-carboxamide] returned an IC50 under setting [1] of 0.5 to 1 µM.

`CCOC(=O)c1cc(CNc2ccccc2C(=O)Nc2ccc3c(c2)OC(F)(F)O3)ccn1` [Example 82, Ethyl 4-{[(2-{[(2,2-difluoro-1,3-benzodioxol-5-yl)amino]carbonyl}phenyl)amino]methyl}pyridine-2-carboxylate] displayed a concentration for half-maximal inhibition (IC50) (group: less than 500 nM) of less than 0.5 µM.

Consider `CS(=O)(=O)CCNC(=O)c1cc(CNc2ccccc2C(=O)Nc2ccc3c(c2)OC(F)(F)O3)ccn1` [Example 83, 4-{[(2-{[(2,2-Difluoro-1,3-benzodioxol-5-yl)amino]carbonyl}phenyl)amino]methyl}-N-[2-(methylsulfonyl)ethyl]pyridine-2-carboxamide], for which, for the setting “group: less than 500 nM”, the IC50 is less than 0.5 µM.

`CCN1CCCC1CNC(=O)c1cc(CNc2ccccc2C(=O)Nc2ccc3c(c2)OC(F)(F)O3)ccn1` (stereo not drawn) [Example 84, 4-{[(2-{[(2,2-difluoro-1,3-benzodioxol-5-yl)amino]carbonyl}phenyl)amino]methyl}-N-[(1-ethylpyrrolidin-2-yl)methyl]pyridine-2-carboxamide]: under setting [1], the IC50 lay in the range of 0.5 to 1 µM.

With `CN(C)CCNC(=O)c1cc(CNc2ccccc2C(=O)Nc2ccc3c(c2)OC(F)(F)O3)ccn1` [Example 85, 4-{[(2-{[(2,2-difluoro-1,3-benzodioxol-5-yl)amino]carbonyl}phenyl)amino]methyl}-N-[2-(dimethylamino)ethyl]pyridine-2-carboxamide], the IC50 (group: less than 500 nM) was less than 0.5 µM.

Take `CN(C)CCCNC(=O)c1cc(CNc2ccccc2C(=O)Nc2ccc3c(c2)OC(F)(F)O3)ccn1` [Example 86, 4-{[(2-{[(2,2-difluoro-1,3-benzodioxol-5-yl)amino]carbonyl}phenyl)amino]methyl}-N-[3-(dimethylamino)propyl]pyridine2-carboxamide]: the half-inhibitory concentration (IC50) (group: less than 500 nM) was less than 0.5 µM.

As for `CCN(CC)CCCNC(=O)c1cc(CNc2ccccc2C(=O)Nc2ccc3c(c2)OC(F)(F)O3)ccn1` [Example 87, N-[3-(diethylamino)propyl]-4-{[(2-{[(2,2-difluoro-1,3-benzodioxol-5-yl)amino]carbonyl}phenyl)amino]methyl}pyridine-2-carboxamide], the 50% inhibitory concentration (IC50) (group: less than 500 nM) is less than 0.5 µM.

`CCN(CC)CCNC(=O)c1cc(CNc2ccccc2C(=O)Nc2ccc3c(c2)OC(F)(F)O3)ccn1` [Example 88, N-[2-(diethylamino)ethyl]-4-{[(2{[(2,2-difluoro-1,3-benzodioxol-5-yl)amino]carbonyl}phenyl)amino]methyl}pyridine-2-carboxamide]: where the note is “group: less than 500 nM”, the IC50 is less than 0.5 µM.

For the molecule `COCCCNC(=O)c1cc(CNc2ccccc2C(=O)Nc2ccc3c(c2)OC(F)(F)O3)ccn1` [Example 89, 4-{[(2-{[(2,2-difluoro-1,3-benzodioxol-5-yl)amino]carbonyl}phenyl)amino]methyl}-N-(3-methoxypropyl)pyridine-2-carboxamide], the IC50 (group: less than 500 nM) is less than 0.5 µM.

Consider `CN(C)CCCCNC(=O)c1cc(CNc2ccccc2C(=O)Nc2ccc3c(c2)OC(F)(F)O3)ccn1` [Example 90, 4-{[(2-{[(2,2-difluoro-1,3-benzodioxol-5-yl)amino]carbonyl}phenyl)amino]methyl}-N-[4-(dimethylamino)butyl]pyridine-2-carboxamide], for which the IC50 under setting [1] was in the range of 0.5 to 1 µM.

As to `O=C(NCCO)c1cc(CNc2ccccc2C(=O)Nc2ccc3c(c2)OC(F)(F)O3)ccn1` [Example 91, 4-{[(2-{[(2,2-difluoro-1,3-benzodioxol-5-yl)amino]carbonyl}phenyl)amino]methyl}-N-(2-hydroxyethyl)pyridine-2-carboxamide], the half-inhibitory concentration (IC50) (group: less than 500 nM) is less than 0.5 µM.

For `O=C(NCCCN1CCCC1)c1cc(CNc2ccccc2C(=O)Nc2ccc3c(c2)OC(F)(F)O3)ccn1` [Example 92, 4-{[(2-{[(2,2-difluoro-1,3-benzodioxol-5-yl)amino]carbonyl}phenyl)amino]methyl}-N-(3-pyrrolidin-1-ylpropyl)pyridine-2-carboxamide], the IC50 (group: less than 500 nM) was less than 0.5 µM.

For the setting “group: between 1 and 3 μM”, `O=C(NCCCO)c1cc(CNc2ccccc2C(=O)Nc2ccc3c(c2)OC(F)(F)O3)ccn1` [Example 93, 4-{[(2-{[(2,2-difluoro-1,3-benzodioxol-5-yl)amino]carbonyl}phenyl)amino]methyl}-N-(3-hydroxypropyl)pyridine-2-carboxamide] came in with an IC50 of 1 to 3 µM.

As to `O=C(NCCc1cnc[nH]1)c1cc(CNc2ccccc2C(=O)Nc2ccc3c(c2)OC(F)(F)O3)ccn1` [Example 94, 4-{[(2-{[(2,2-difluoro-1,3-benzodioxol-5-yl)amino]carbonyl}phenyl)amino]methyl}-N-[2-(1H-imidazol-5-yl)ethyl]pyridine-2-carboxamide], the concentration for half-maximal inhibition (IC50) under setting [1] was 0.5 to 1 µM.

As for `NC(=O)CCNC(=O)c1cc(CNc2ccccc2C(=O)Nc2ccc3c(c2)OC(F)(F)O3)ccn1` [Example 95, N-(3-amino-3-oxopropyl)-4-{[(2{[(2,2-difluoro-1,3-benzodioxol-5-yl)amino]carbonyl}phenyl)amino]methyl}pyridine-2-carboxamide], the concentration for half-maximal inhibition (IC50) (group: less than 500 nM) is less than 0.5 µM.

As for `O=C(NCCCn1ccnc1)c1cc(CNc2ccccc2C(=O)Nc2ccc3c(c2)OC(F)(F)O3)ccn1` [Example 96, 4-{[(2-{[(2,2-difluoro-1,3-benzodioxol-5-yl)amino]carbonyl}phenyl)amino]methyl}-N-[3-(1H-imidazol-1-yl)propyl]pyridine-2-carboxamide], the half-maximal inhibitory concentration (IC50) (group: less than 500 nM) was less than 0.5 µM.

The molecule `O=C(NCCCCN1CCCC1)c1cc(CNc2ccccc2C(=O)Nc2ccc3c(c2)OC(F)(F)O3)ccn1` [Example 97, 4-{[(2-{[(2,2-difluoro-1,3-benzodioxol-5-yl)amino]carbonyl}phenyl)amino]methyl}-N-(4-pyrrolidin-1-ylbutyl)pyridine-2-carboxamide] came in with an IC50 (group: less than 500 nM) of less than 0.5 µM.

Consider `O=C(NCCCN1CCCCC1)c1cc(CNc2ccccc2C(=O)Nc2ccc3c(c2)OC(F)(F)O3)ccn1` [Example 98, 4-{[(2-{[(2,2-difluoro-1,3-benzodioxol-5-yl)amino]carbonyl}phenyl)amino]methyl}-N-(3-piperidin-1-ylpropyl)pyridine-2-carboxamide], for which the IC50 under setting [1] was 0.5 to 1 µM.

The molecule `O=C(O)CCNC(=O)c1cc(CNc2ccccc2C(=O)Nc2ccc3c(c2)OC(F)(F)O3)ccn1` [Example 99, N-[(4-{[(2-{[(2,2-difluoro-1,3-benzodioxol-5-yl)amino]carbonyl}phenyl)amino]methyl}pyridin-2-yl)carbonyl]beta-alanine] gave a concentration for half-maximal inhibition (IC50) (group: between 1 and 3 μM) of 1 to 3 µM.

In turn, `CN(C)CCCCCNC(=O)c1cc(CNc2ccccc2C(=O)Nc2ccc3c(c2)OC(F)(F)O3)ccn1` [Example 100, 4-{[(2-{[(2,2-difluoro-1,3-benzodioxol-5-yl)amino]carbonyl}phenyl)amino]methyl)-N-[5-(dimethylamino)pentyl]pyridine2-carboxamide] showed a 50% inhibitory concentration (IC50) (group: less than 500 nM) of less than 0.5 µM.

Molecule `O=C(NCCc1c[nH]c2ccccc12)c1cc(CNc2ccccc2C(=O)Nc2ccc3c(c2)OC(F)(F)O3)ccn1` [Example 102, 4-{[(2-{[(2,2-difluoro-1,3-benzodioxol-5-yl)amino]carbonyl}phenyl)amino]methyl}-N-[2-(1H-indol-3-yl)ethyl]pyridine-2-carboxamide] showed a half-inhibitory concentration (IC50) (group: between 1 and 3 μM) of 1 to 3 µM.

As for `O=C(NCCOCCO)c1cc(CNc2ccccc2C(=O)Nc2ccc3c(c2)OC(F)(F)O3)ccn1` [Example 103, 4-{[(2-{[(2,2-difluoro-1,3-benzodioxol-5-yl)amino]carbonyl}phenyl)amino]methyl}-N-[2-(2-hydroxyethoxy)ethyl]pyridine-2carboxamide], where the note is “group: less than 500 nM”, the IC50 is less than 0.5 µM.

`O=C(NCc1ccncc1)c1cc(CNc2ccccc2C(=O)Nc2ccc3c(c2)OC(F)(F)O3)ccn1` [Example 104, 4-{[(2-{[(2,2-difluoro-1,3-benzodioxol-5-yl)amino]carbonyl}phenyl)amino]methyl}-N-(pyridin-4-ylmethyl)pyridine-2-carboxamide] came in with a 50% inhibitory concentration (IC50) (group: less than 500 nM) of less than 0.5 µM.

In turn, `CCCCN(CCCC)CCCNC(=O)c1cc(CNc2ccccc2C(=O)Nc2ccc3c(c2)OC(F)(F)O3)ccn1` [Example 105, N-[3-(dibutylamino)propyl]-4-{[(2-{[(2,2-difluoro-1,3-benzodioxol-5-yl)amino]carbonyl}phenyl)amino]methyl}pyridine-2-carboxamide] yielded an IC50 under setting [1] of 0.5 to 1 µM.
